Assay results as given in patent US8772307B2, “Substituted spiro compounds and their use for producing pain-relief medicaments” (Gruenenthal GmbH, priority 2005, dated 2014).

How the values were obtained:
[1] = target: T1, rat-species vanilloid receptor 1 (VR1/TRPV1) (Rattus norvegicus, UniProt O35433); experiment: Functional testing on vanilloid receptor 1 (VR1/TRPV1): FLIPR Ca2+ inflow assay in rat dorsal root ganglia cells (% activation / % inhibition vs capsaicin); assay type: cell-based; settings: for inhibition at 10 µM: inhibition compared to 10 μM CP (capsaicin); for activation at 10 µM: stimulation compared to 10 μM CP (capsaicin)
T1 construct: endogenous in cells; host or cells: primary cells dissociated from rat dorsal root ganglia (DRG)
Procedure: Preference may also be given to substituted spiro compounds according to the invention of general formula I which in a FLIPR assay in a concentration of 10 μM display inhibition of the Ca^2+ ion inflow in dorsal root ganglia of rats of at least 30%, preferably of at least 40%, particularly preferably of at least 50%, most particularly preferably of at least 70%, even more preferably of at least 90%, compared to the maximum achievable inhibition of the Ca^2+ ion inflow with capsaicin in a concentration of 10 μM.
In the FLIPR assay, the Ca^2+ inflow is quantified using a Ca^2+-sensitive dye (type Fluo-4, Molecular Probes Europe BV, Leiden, Netherlands) in a fluorescent imaging plate reader (FLIPR, Molecular Devices, Sunnyvale, USA), as described hereinafter.
I. Functional Testing Carried Out on the Vanilloid Receptor 1 (VR1/TRPV1 Receptor)
(§1) The agonistic or antagonistic effect of the substances to be tested can be determined on the rat-species vanilloid receptor 1 (VR1/TRPV1) using the following assay. According to this assay, the Ca^2+ inflow is quantified through the receptor channel using a Ca^2+-sensitive dye (type Fluo-4, Molecular Probes Europe BV, Leiden, Netherlands) in a fluorescent imaging plate reader (FLIPR, Molecular Devices, Sunnyvale, USA).
Complete medium: 50 mL HAMS F12 nutrient mixture (Gibco Invitrogen GmbH, Karlsruhe, Germany) with
10% by volume of FCS (foetal calf serum, Gibco Invitrogen GmbH, Karlsruhe, Germany, […]);
2 mM L-glutamine (Sigma, Munich, Germany);
1% by weight of AA solution (antibiotic/antimyotic solution, PAA, Pasching, Austria)
and 25 ng/ml NGF medium (2.5 S, Gibco Invitrogen GmbH, Karlsruhe, Germany)
Cell culture plate: Poly-D-lysine-coated, black 96 well plates having a clear base (96 well black/clear plate, BD Biosciences, Heidelberg, Germany) were additionally coated with laminin (Gibco Invitrogen GmbH, Karlsruhe, Germany), the laminin being diluted with PBS (Ca—Mg-free PBS, Gibco Invitrogen GmbH, Karlsruhe, Germany) to a concentration of 100 μg/mL. Aliquots having a laminin concentration of 100 μg/mL were removed and stored at −20° C. The aliquots were diluted with PBS in a ratio of 1:10 to 10 μg/mL laminin and in each case 50 μL of the solution were pipetted into a recess in the cell culture plate. The cell culture plates were incubated for at least two hours at 37° C., the excess solution was removed by suction-filtration and the recesses were each washed twice with PBS. The coated cell culture plates were stored with excess PBS which was not removed until just before the feeding of the cells.
Preparation of the Cells:
The vertebral column was removed from decapitated rats and placed immediately into cold HBSS buffer (Hank's buffered saline solution, Gibco Invitrogen GmbH, Karlsruhe, Germany), i.e. buffer located in an ice bath, mixed with 1% by volume (percent by volume) of an AA solution (antibiotic/antimyotic solution, PAA, Pasching, Austria). The vertebral column was cut longitudinally and removed together with fasciae from the vertebral canal. Subsequently, the dorsal root ganglia (DRG) were removed and again stored in cold HBSS buffer mixed with 1% by volume of an AA solution. The DRG, from which all blood remnants and spinal nerves had been removed, were transferred in each case to 500 μL of cold type 2 collagenase (PAA, Pasching, Austria) and incubated for 35 minutes at 37° C. After the addition of 2.5% by volume of trypsin (PAA, Pasching, Austria), incubation was continued for 10 minutes at 37° C. After complete incubation, the enzyme solution was carefully pipetted off and 500 μL of complete medium were added to each of the remaining DRG. The DRG were in each case suspended several times, drawn through cannulae No. 1, No. 12 and No. 16 using a syringe and transferred to a 50 mL Falcon tube which was filled up to 15 mL with complete medium. […]

vanilloid receptor (VR1) = target: T2, vanilloid receptor (VR1) (Homo sapiens, UniProt Q8NER1); experiment: Functional testing on vanilloid receptor (VR1): FLIPR Ca2+ inflow assay in CHO K1 cells stably transfected with the VR1 gene; assay type: cell-based; settings: for inhibition at 10 µM: CHO-K1, inhibition compared to 10 μM CP (capsaicin); for activation at 10 µM: CHO-K1, stimulation compared to 10 μM CP (capsaicin)
T2 construct: expressed in transfected cells; host or cells: CHO K1 cells (ECACC), stably transfected
Description: II. Functional Testing Carried Out on the Vanilloid Receptor (VR1)
as §1, with “can also” for “can”, “the” for “the rat-species”, “(VR1)” for “1 (VR1/TRPV1)”, “the” for “the receptor”
Chinese hamster ovary cells (CHO K1 cells, European Collection of Cell Cultures (ECACC) United Kingdom) were stably transfected with the VR1 gene. For functional testing, these cells were plated out on poly-D-lysine-coated black 96 well plates having a clear base (BD Biosciences, Heidelberg, Germany) at a density of 25,000 cells/well. The cells were incubated overnight at 37° C. and 5% CO2 in a culture medium (Ham's F12 nutrient mixture, 10% by volume of FCS (foetal calf serum), 18 μg/ml L-proline). The next day the cells were incubated with Fluo-4 (Fluo-4 2 μM, 0.01% by volume of Pluronic F127, Molecular Probes in HBSS (Hank's buffered saline solution), Gibco Invitrogen GmbH, Karlsruhe, Germany) for 30 minutes at 37° C. Subsequently, the plates were washed 3 times with HBSS buffer and after further incubation for 15 minutes at room temperature used for Ca^2+ measurement in a FLIPR assay. The Ca^2+-dependent fluorescence was measured before and after the addition of the substances to be tested (λex wavelength=488 nm, λem=540 nm). Quantification was carried out by measuring the highest fluorescence intensity (FC, Fluorescence Counts) over time.
The FLIPR protocol consists of 2 substance additions. First the compounds to be tested (10 μM) were pipetted onto the cells and the Ca^2+ inflow was compared with the control (capsaicin 10 μM) (% activation based on the Ca^2+ signal after the addition of 10 μM capsaicin). After 5 minutes' incubation, 100 nM of capsaicin were administered and the Ca^2+ inflow was also determined.
Desensitising agonists and antagonists led to suppression of the Ca^2+ inflow. The % inhibition was calculated compared to the maximum achievable inhibition with 10 μM of capsaicin.

T2 sequence (Q8NER1 whole entry): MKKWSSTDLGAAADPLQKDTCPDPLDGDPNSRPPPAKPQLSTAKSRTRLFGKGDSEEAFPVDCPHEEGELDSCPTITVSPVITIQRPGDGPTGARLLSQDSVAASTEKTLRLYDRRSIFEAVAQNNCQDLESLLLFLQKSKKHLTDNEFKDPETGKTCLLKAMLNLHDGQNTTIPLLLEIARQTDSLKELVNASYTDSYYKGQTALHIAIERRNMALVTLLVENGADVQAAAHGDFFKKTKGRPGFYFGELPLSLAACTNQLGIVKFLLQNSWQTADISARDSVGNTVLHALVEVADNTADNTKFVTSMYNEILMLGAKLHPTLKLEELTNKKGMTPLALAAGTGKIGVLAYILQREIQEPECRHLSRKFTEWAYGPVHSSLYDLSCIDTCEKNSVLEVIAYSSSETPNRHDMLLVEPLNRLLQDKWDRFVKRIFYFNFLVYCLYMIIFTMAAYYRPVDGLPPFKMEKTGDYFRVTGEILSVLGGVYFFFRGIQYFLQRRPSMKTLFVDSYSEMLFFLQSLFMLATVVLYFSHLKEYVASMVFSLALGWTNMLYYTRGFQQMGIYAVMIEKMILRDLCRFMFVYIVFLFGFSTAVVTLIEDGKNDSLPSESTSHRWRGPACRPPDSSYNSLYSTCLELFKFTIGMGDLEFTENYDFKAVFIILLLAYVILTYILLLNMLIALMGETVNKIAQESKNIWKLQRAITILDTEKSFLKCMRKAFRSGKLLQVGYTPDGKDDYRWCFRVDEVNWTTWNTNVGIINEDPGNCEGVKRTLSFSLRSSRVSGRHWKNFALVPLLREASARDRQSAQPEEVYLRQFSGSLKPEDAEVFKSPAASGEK
T1 sequence (O35433 whole entry): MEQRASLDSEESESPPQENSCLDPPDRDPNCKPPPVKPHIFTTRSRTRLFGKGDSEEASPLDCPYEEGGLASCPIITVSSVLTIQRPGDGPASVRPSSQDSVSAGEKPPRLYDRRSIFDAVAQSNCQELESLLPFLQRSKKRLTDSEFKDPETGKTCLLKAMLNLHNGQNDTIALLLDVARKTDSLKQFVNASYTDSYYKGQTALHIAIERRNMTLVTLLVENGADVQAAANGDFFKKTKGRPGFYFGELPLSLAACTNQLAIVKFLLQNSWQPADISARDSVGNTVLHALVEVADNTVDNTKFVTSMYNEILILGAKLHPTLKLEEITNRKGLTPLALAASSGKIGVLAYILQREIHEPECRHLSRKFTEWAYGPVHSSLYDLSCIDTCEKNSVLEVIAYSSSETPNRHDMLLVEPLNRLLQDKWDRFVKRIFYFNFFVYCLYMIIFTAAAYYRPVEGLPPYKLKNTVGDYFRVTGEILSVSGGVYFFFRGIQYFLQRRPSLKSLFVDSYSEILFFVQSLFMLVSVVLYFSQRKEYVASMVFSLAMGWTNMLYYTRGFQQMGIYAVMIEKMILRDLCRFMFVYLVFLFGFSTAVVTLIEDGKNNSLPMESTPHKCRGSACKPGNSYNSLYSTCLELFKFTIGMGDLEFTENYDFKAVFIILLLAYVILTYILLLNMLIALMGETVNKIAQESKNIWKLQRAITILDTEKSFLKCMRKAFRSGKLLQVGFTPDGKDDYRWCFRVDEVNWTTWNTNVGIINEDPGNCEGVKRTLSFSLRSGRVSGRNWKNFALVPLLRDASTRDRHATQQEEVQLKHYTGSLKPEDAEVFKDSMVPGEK

inhibition at 10 µM [1]	activation at 10 µM [1]	inhibition at 10 µM (vanilloid receptor (VR1))	activation at 10 µM (vanilloid receptor (VR1))	Compound
85.6%	-0.73%	-4.4%	-0.15%	O=C(Nc1ccc(I)cc1)N1CCC2(CC1)CC(c1ccccc1)=NO2 [Compound 44, 3-phenyl-1-oxa-2,8-diazaspiro[4.5]dec-2-ene-8-carboxylic acid-(4-iodophenyl)amide]
58%	-0.13%	9.95%	0.29%	COc1cccc(C2=NOC3(CCN(C(=O)Nc4ccc(C)cc4)CC3)C2)c1 [Compound 146, 3-(3-methoxyphenyl)-1-oxa-2,8-diazaspiro[4.5]dec-2-ene-8-carboxylic acid p-tolylamide]
88%	0%	52%	0%	O=C(/C=C/c1ccc(C(F)(F)F)nc1N1CCCCC1)N1CCC2(CC1)CC(c1cccc(Cl)c1)=NO2 [Compound 356, (E)-1-(3-(3-chlorophenyl)-1-oxa-2,8-diazaspiro[4.5]dec-2-en-8-yl)-3-(2-(piperidin-1-yl)-6-(trifluoromethyl)pyridin-3-yl)prop-2-en-1-one]
55.9%	-0.47%	-7.62%	-0.15%	O=C(Nc1cccc(C(F)(F)F)c1)N1CCC2(CC1)CC(c1ccccc1)=NO2 [Compound 90, 3-phenyl-1-oxa-2,8-diazaspiro[4.5]dec-2-ene-8-carboxylic acid-(3-trifluoromethylphenyl)amide]
94.5%	-0.43%	-16.6%	-0.18%	Cc1ccc(C2=NOC3(CCN(C(=O)Nc4ccc(C(C)(C)C)cc4)CC3)C2)cc1 [Compound 144, 3-p-tolyl-1-oxa-2,8-diazaspiro[4.5]dec-2-ene-8-carboxylic acid-(4-tert-butylphenyl)amide]
48.3%	0.92%	11.4%	0.01%	COc1ccc(NC(=O)N2CCC3(CC2)CC(c2cccc(OC)c2)=NO3)cc1 [Compound 47, 3-(3-methoxyphenyl)-1-oxa-2,8-diazaspiro[4.5]dec-2-ene-8-carboxylic acid-(4-methoxyphenyl)amide]
99%	33%	81%	42%	COc1cc(C2=NOC3(CCN(C(=O)Nc4ccc(C(C)(C)C)cc4)CC3)C2)ccc1Cl [Compound 378, N-(4-tert-butylphenyl)-3-(4-chloro-3-methoxyphenyl)-1-oxa-2,8-diazaspiro[4.5]dec-2-ene-8-carboxamide]
48.6%	0.51%	2.09%	0.01%	COc1cccc(C2=NOC3(CCN(C(=O)Nc4cccc(SC)c4)CC3)C2)c1 [Compound 59, 3-(3-methoxyphenyl)-1-oxa-2,8-diazaspiro[4.5]dec-2-ene-8-carboxylic acid-(3-methylsulphanylphenyl)amide]
98%	0%	63%	0%	O=C(/C=C/c1ccc(C(F)(F)F)nc1N1CCCCC1)N1CCC2(CC1)CC(c1ccccc1)=NO2 [Compound 355, (E)-1-(3-phenyl-1-oxa-2,8-diazaspiro[4.5]dec-2-en-8-yl)-3-(2-(piperidin-1-yl)-6-(trifluoromethyl)pyridin-3-yl)prop-2-en-1-one]
50.9%	-0.47%	8.28%	-0.35%	O=C(Nc1ccccc1Oc1ccccc1)N1CCC2(CC1)CC(c1ccc(C(F)(F)F)cc1)=NO2 [Compound 103, 3-(4-trifluoromethylphenyl)-1-oxa-2,8-diazaspiro[4.5]dec-2-ene-8-carboxylic acid-(2-phenoxyphenyl)amide]
54.2%	-0.43%	-0.7%	8.56%	COc1ccccc1NC(=O)N1CCC2(CC1)CC(c1ccc(C(C)(C)C)cc1)=NO2 [Compound 201, 3-(4-tert-butylphenyl)-1-oxa-2,8-diazaspiro[4.5]dec-2-ene-8-carboxylic acid-(2-methoxyphenyl)amide]
63%	-0.2%	-18.8%	-0.07%	CC(C)(C)c1ccc(NC(=O)N2CCC3(CC2)CC(c2ccc(Cl)cc2)=NO3)cc1 [Compound 142, 3-(4-chlorophenyl)-1-oxa-2,8-diazaspiro[4.5]dec-2-ene-8-carboxylic acid-(4-tert-butylphenyl)amide]
88.1%	0.73%	28.1%	0.66%	COc1cccc(C2=NOC3(CCN(C(=S)Nc4ccc(C(C)(C)C)cc4)CC3)C2)c1 [Compound 278, 3-(3-methoxyphenyl)-1-oxa-2,8-diazaspiro[4.5]dec-2-ene-8-thiocarboxylic acid-(4-tert-butylphenyl)amide]
43.8%	-0.73%	13.4%	0.01%	O=C(Nc1ccccc1)N1CCC2(CC1)CC(c1ccc(Cl)cc1)=NO2 [Compound 3, 3-(4-chlorophenyl)-1-oxa-2,8-diazaspiro[4.5]dec-2-ene-8-carboxylic acid phenylamide]
40.3%	-0.73%	10.1%	-0.14%	CCCc1ccccc1NC(=O)N1CCC2(CC1)CC(c1ccccc1)=NO2 [Compound 22, 3-phenyl-1-oxa-2,8-diazaspiro[4.5]dec-2-ene-8-carboxylic acid-(2-propylphenyl)amide]
